Results as given in patent publication US9265253B2, “Use of macrocyclic picolinamides as fungicides” (DOW AGROSCIENCES LLC, priority 2013, dated 2016).
Where two headings read alike, the source gives them in different places.

Experiments:
Assay type in all cases: in vivo
[1] = system: Puccinia triticina; Synonym: Puccinia recondite f. Sp. Tritici; assay: Wheat Brown Rust (PUCCRT) disease control; conditions: for pest or weed control at 100 ppm / pest or weed control at 121.5 g/ha: Puccinia triticina, topical
Method in brief: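 Brown rust on first-leaf Yuma wheat: spore inoculation before or after spray application (acetone/Triton X-100 solution, or EC with Trycol in track spray), overnight 100% RH at 22 °C, disease developed at 24 °C. Severity scored 0–100% and converted to percent control against untreated.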

[2] = system: Alternaria solani; assay: Tomato Early Blight (ALTESO) disease control; conditions: 1 Day Protectant; for pest or weed control at 100 ppm: Alternaria solani, topical, 24 h, read-out: Disease Control ALTESO 1 DP
Procedure: Technical grades of materials were dissolved in acetone, which were then mixed with nine volumes of water containing 110 ppm Triton X-100. The fungicide solutions were applied onto wheat seedlings using an automated booth sprayer to run-off. All sprayed plants were allowed to air dry prior to further handling. All fungicides were evaluated using the aforementioned method for their activity vs. all target diseases. Wheat leaf blotch and brown rust activity were also evaluated using track spray applications, in which case the fungicides were formulated as EC formulations, containing 0.1% Trycol 5941 in the spray solutions. Wheat plants (variety Yuma) were grown from seed in a greenhouse in 50% mineral soil/50% soil-less Metro mix until the first leaf was fully emerged, with 7-10 seedlings per pot. These plants were inoculated with an aqueous spore suspension of Septoria tritici either prior to or after fungicide treatments. After inoculation the plants were kept in 100% relative humidity (one day in a dark dew chamber followed by two to three days in a lighted dew chamber at 20° C.) to permit spores to germinate and infect the leaf. The plants were then transferred to a greenhouse set at 20° C. for disease to develop. When disease symptoms were fully expressed on the 1st leaves of untreated plants, infection levels were assessed on a scale of 0 to 100 percent disease severity. Percent disease control was calculated using the ratio of disease severity on treated plants relative to untreated plants. Tomato plants (variety Outdoor girl) were propagated in soil-less Metro mix, with each pot having one plant, and used when 12 to 14 days old. Test plants were inoculated with an aqueous spore suspension of Alternaria solani 24 hr after fungicide treatments. After inoculation the plants were kept in 100% relative humidity (one day in a dark dew chamber followed by two to three days in a lighted dew chamber at 20° C.) to permit spores to germinate and infect the leaf. The plants were then transferred to a growth room at 22° C. for disease to develop. Fungicide formulation, application and disease assessment on the sprayed leaves followed the procedures as described in the Example A.

[3] = system: Mycosphaerella graminicola; Anamorph: Septoria tritici; assay: Leaf Blotch of Wheat (SEPTTR) disease control; conditions: for pest or weed control at 100 ppm / pest or weed control at 121.5 g/ha: Zymoseptoria tritici
Method in brief: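 Protective or curative format: Septoria tritici inoculation either preceded or followed fungicide application to first-leaf Yuma wheat. Severity scored 0–100%; control expressed versus untreated.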

[4] = system: Uncinula necator; assay: Grape Powdery Mildew (UNCINE) disease control; conditions: 1 Day Protectant; for pest or weed control at 100 ppm: Erysiphe necator, topical, 24 h, read-out: Disease Control UNCINE 1 DP
Procedure: Technical grades of materials were dissolved in acetone, which were then mixed with nine volumes of water containing 110 ppm Triton X-100. The fungicide solutions were applied onto wheat seedlings using an automated booth sprayer to run-off. All sprayed plants were allowed to air dry prior to further handling. All fungicides were evaluated using the aforementioned method for their activity vs. all target diseases. Wheat leaf blotch and brown rust activity were also evaluated using track spray applications, in which case the fungicides were formulated as EC formulations, containing 0.1% Trycol 5941 in the spray solutions. Wheat plants (variety Yuma) were grown from seed in a greenhouse in 50% mineral soil/50% soil-less Metro mix until the first leaf was fully emerged, with 7-10 seedlings per pot. These plants were inoculated with an aqueous spore suspension of Septoria tritici either prior to or after fungicide treatments. After inoculation the plants were kept in 100% relative humidity (one day in a dark dew chamber followed by two to three days in a lighted dew chamber at 20° C.) to permit spores to germinate and infect the leaf. The plants were then transferred to a greenhouse set at 20° C. for disease to develop. When disease symptoms were fully expressed on the 1st leaves of untreated plants, infection levels were assessed on a scale of 0 to 100 percent disease severity. Percent disease control was calculated using the ratio of disease severity on treated plants relative to untreated plants. Grape seedlings (variety Carignane) were grown in soil-less Metro mix, with one plant per pot, and used in the test when approximately one month old. Plants were inoculated 24 hr after fungicide treatment by shaking spores from infected leaves over test plants. Plants were maintained in a greenhouse set at 20° C. until disease was fully developed. Fungicide formulation, application and disease assessment on the sprayed leaves followed the procedures as described in the Example A.

[5] = 24 h, 1 Day Protectant, rate 100 ppm, read-out: PUCCRT 1 DP disease control
[6] = 24 h, 1 Day Protectant, rate 121.5 g/H, read-out: PUCCRT 1 DP disease control
[7] = 72 h, 3 Day Curative, rate 100 ppm, read-out: PUCCRT 3 DC disease control
[8] = 72 h, 3 Day Curative, rate 121.5 g/H, read-out: PUCCRT 3 DC disease control
[9] = 24 h, 1 Day Protectant, rate 100 ppm, read-out: SEPTTR 1 DP disease control
[10] = 24 h, 1 Day Protectant, rate 121.5 g/H, read-out: SEPTTR 1 DP disease control
[11] = 72 h, 3 Day Curative, rate 100 ppm, read-out: SEPTTR 3 DC disease control
[12] = 72 h, 3 Day Curative, rate 121.5 g/H, read-out: SEPTTR 3 DC disease control
[13] = 24 h, Wheat Brown Rust, 1 Day Protectant, rate 121.5 g/H (low volume application), read-out: Disease control PUCCRT 1 DP
[14] = 24 h, Wheat Leaf Blotch, 1 Day Protectant, rate 121.5 g/H (low volume application), read-out: Disease control SEPTTR 1 DP
[15] = 72 h, Wheat Leaf Blotch, 3 Day Curative, rate 121.5 g/H (low volume application), read-out: Disease control SEPTTR 3 DC
[16] = 1 Day Protectant, rate 121.5 g/H

Structure (SMILES) | pest or weed control at 100 ppm [1, 5] | pest or weed control at 121.5 g/ha [1, 6] | pest or weed control at 100 ppm [1, 7] | pest or weed control at 121.5 g/ha [1, 8] | pest or weed control at 100 ppm [2] | pest or weed control at 100 ppm [3, 9] | pest or weed control at 121.5 g/ha [3, 10] | pest or weed control at 100 ppm [3, 11] | pest or weed control at 121.5 g/ha [3, 12] | pest or weed control at 100 ppm [4] | also measured
CCCO[C@@H]1[C@@H](CCC(C)C)CCC[C@H](NC(=O)c2nccc(OC)c2OC(C)=O)C(=O)O[C@H]1C [Compound F64] | 80 to 100% | 80 to 100% | 80 to 100% | 80 to 100% | 80 to 100% | 80 to 100% | 80 to 100% | 80 to 100% | 80 to 100% | 80 to 100% | 
CCOCC(=O)OCOc1c(OC)ccnc1C(=O)N[C@H]1CCC[C@H](Cc2ccccc2)[C@@H](OCC(C)C)[C@H](C)OC1=O [Compound F172] | 80 to 100% | 80 to 100% | 80 to 100% | 80 to 100% | 80 to 100% | 80 to 100% | 80 to 100% | 80 to 100% | 80 to 100% | 0 to 80% | 
C=C[C@H]1CCC[C@H](NC(=O)c2nccc(OC)c2OCOC(C)=O)C(=O)O[C@@H](C)[C@@H]1Oc1ccccc1 [Compound F146] |  | 80 to 100% |  | 80 to 100% | 80 to 100% |  | 80 to 100% |  | 80 to 100% | 80 to 100% | 
CCOCC(=O)OCOc1c(OC)ccnc1C(=O)N[C@H]1CCC[C@H](Cc2ccc(F)cc2F)[C@@H](OC(=O)c2ccco2)[C@H](C)OC1=O [Compound F193] |  |  |  |  | 80 to 100% |  |  |  |  | 0 to 80% | pest or weed control at 121.5 g/ha [1, 13]: 80 to 100%; pest or weed control at 121.5 g/ha [3, 14]: 80 to 100%; pest or weed control at 121.5 g/ha [3, 15]: 0 to 80%
CCCO[C@@H]1[C@@H](Cc2ccc(F)cc2)CCC[C@H](NC(=O)c2nccc(OC)c2OCOC(C)=O)C(=O)O[C@H]1C [Compound F101] | 80 to 100% | 80 to 100% | 80 to 100% | 80 to 100% | 80 to 100% | 80 to 100% | 80 to 100% | 80 to 100% | 80 to 100% | 80 to 100% | 
COc1ccnc(C(=O)N[C@H]2CCC[C@H](CC3CCCCC3)[C@@H](OCC(C)C)[C@H](C)OC2=O)c1OCOC(C)=O [Compound F113] | 80 to 100% | 80 to 100% | 80 to 100% | 80 to 100% | 80 to 100% | 80 to 100% | 80 to 100% | 80 to 100% | 80 to 100% | 0 to 80% | 
CCOCC(=O)OCOc1c(OC)ccnc1C(=O)N[C@H]1CCC[C@H](Cc2ccccc2)[C@@H](OCC2CC2)[C@H](C)OC1=O [Compound F173] | 80 to 100% | 80 to 100% | 80 to 100% | 80 to 100% | 80 to 100% | 80 to 100% | 80 to 100% | 80 to 100% | 80 to 100% | 0 to 80% | 
CCOCC(=O)OCOc1c(OC)ccnc1C(=O)N[C@H]1CCC[C@H](Cc2ccc(F)cc2)[C@@H](OCC2CC2)[C@H](C)OC1=O [Compound F164] | 80 to 100% | 80 to 100% | 80 to 100% | 0 to 80% | 80 to 100% | 80 to 100% | 80 to 100% | 80 to 100% | 80 to 100% | 80 to 100% | 
CCO[C@@H]1[C@@H](Cc2ccccc2)CCC[C@H](NC(=O)c2nccc(OC)c2OC(C)=O)C(=O)O[C@H]1C [Compound F87] |  | 80 to 100% |  | 80 to 100% | 80 to 100% |  | 80 to 100% |  | 80 to 100% | 80 to 100% | 
CCCO[C@@H]1[C@@H](Cc2ccccc2)CCC[C@H](NC(=O)c2nccc(OC)c2OC(=O)CCOC)C(=O)O[C@H]1C [Compound F198] |  |  |  |  | 80 to 100% |  |  |  |  | 80 to 100% | pest or weed control at 121.5 g/ha [1, 13]: 80 to 100%; pest or weed control at 121.5 g/ha ([1]; 72 h, Wheat Brown Rust, 3 Day Curative, rate 121.5 g/H (low volume application), read-out: Disease control PUCCRT 3 DC): 80 to 100%; pest or weed control at 121.5 g/ha [3, 14]: 80 to 100%; pest or weed control at 121.5 g/ha [3, 15]: 80 to 100%
COc1ccnc(C(=O)N[C@H]2CCC[C@H](Cc3ccc(F)cc3)[C@@H](OCC3CC3)[C@H](C)OC2=O)c1OCOC(C)=O [Compound F98] |  |  |  |  |  |  |  |  |  |  | PUCCRT 1 DP disease control ([1]; 1 Day Protectant, rate 100 ppm): A (80-100); PUCCRT 1 DP disease control [1, 16]: A (80-100); PUCCRT 3 DC disease control ([1]; 3 Day Curative, rate 100 ppm): A (80-100); PUCCRT 3 DC disease control ([1]; 3 Day Curative, rate 121.5 g/H): A (80-100); Disease Control ALTESO 1 DP ([2]; 100 ppm): A (80-100); SEPTTR 1 DP disease control ([3]; 1 Day Protectant, rate 100 ppm): A (80-100); SEPTTR 1 DP disease control [3, 16]: A (80-100); SEPTTR 3 DC disease control ([3]; 3 Day Curative, rate 100 ppm): A (80-100); SEPTTR 3 DC disease control ([3]; 3 Day Curative, rate 121.5 g/H): A (80-100); Disease Control UNCINE 1 DP ([4]; 100 ppm): A (80-100)
COc1ccnc(C(=O)N[C@H]2CCC[C@H](Cc3ccccc3)[C@@H](OCC3CC3)[C@H](C)OC2=O)c1OCOC(C)=O [Compound F107] | 80 to 100% | 80 to 100% | 80 to 100% | 80 to 100% | 80 to 100% | 80 to 100% | 80 to 100% | 80 to 100% | 80 to 100% | 0 to 80% | 
